Test results reported in ChEMBL document CHEMBL4613212, “Insights of synthetic analogues of anti-leprosy agents” (Bioorg Med Chem, 2019).
Converted amounts (≈) assume the structure as drawn.

Key:
Staphylococcus aureus = assay: Antimicrobial activity against Staphylococcus aureus ATCC 25923 by broth microdilution assay; format: functional
Klebsiella pneumoniae = assay: Antimicrobial activity against Klebsiella pneumoniae 700603 by broth microdilution assay; format: functional
Escherichia coli [1] = assay: Antimicrobial activity against Escherichia coli ATCC 35218 by broth microdilution assay; format: functional
Pseudomonas aeruginosa = assay: Antimicrobial activity against Pseudomonas aeruginosa ATCC 27853 by broth microdilution assay; format: functional
Nakaseomyces glabratus = assay: Antifungal activity against Candida glabrata; format: functional
Enterococcus faecalis [2] = assay: Antimicrobial activity against Enterococcus faecalis ATCC 51922 by broth microdilution assay; format: functional
[3] = test system: Mycobacterium tuberculosis; assay: Antitubercular activity against Mycobacterium tuberculosis H37Rv ATCC 27294 incubated for 7 days by microplate alamar blue assay; format: functional; conditions: H37Rv ATCC 27294, 168 h
Enterococcus faecalis [4] = assay: Antimicrobial activity against Enterococcus faecalis ATCC 29212 by broth microdilution assay; format: functional
Listeria monocytogenes = assay: Antimicrobial activity against Listeria monocytogenes ATCC 1911 by broth microdilution assay; format: functional
Escherichia coli [5] = assay: Antimicrobial activity against Escherichia coli ATCC 25922 by broth microdilution assay; format: functional
[6] = test system: Mycobacterium tuberculosis; assay: Antimycobacterial activity against Mycobacterium tuberculosis H37Rv infected in CF-1 mouse assessed as change in survival time at 3 mg/kg administrated daily for 14 days with food relative to control; format: functional
[7] = test system: Mycobacterium tuberculosis; assay: Antimycobacterial activity against Mycobacterium tuberculosis H37Rv infected in CF-1 mouse assessed as change in survival time at 5 mg/kg administrated daily for 14 days with food relative to control; format: functional
[8] = test system: Mycobacterium tuberculosis; assay: Antimycobacterial activity against Mycobacterium tuberculosis H37Rv infected in CF-1 mouse assessed as change in survival time at 11 mg/kg administrated daily for 14 days with food relative to control; format: functional
[9] = test system: Mycobacterium tuberculosis; assay: Antitubercular activity against Mycobacterium tuberculosis H37Rv ATCC 27294 assessed as inhibition of [3H]-thymidine incorporation; format: functional, organism-based
[10] = test system: Mycobacterium tuberculosis; assay: Antitubercular activity against Mycobacterium tuberculosis H37Rv ATCC 27294 assessed as inhibition of [3H]-thymidine incorporation relative to control; format: functional
[11] = test system: Mycobacterium tuberculosis; assay: Antitubercular activity against Mycobacterium tuberculosis H37Rv ATCC 27294 assessed as growth inhibition at 6.25 ug/ml by microplate alamar blue assay relative to control; format: functional
[12] = Plasma concentration in rifampin-susceptible Mycobacterium leprae infected in BALB/c mouse at 6 mg/kg administered with food daily for 4 weeks by high-pressure liquid chromatography analysis; format: ADME, organism-based; conditions: po
[13] = Plasma concentration in rifampin-susceptible Mycobacterium leprae infected in BALB/c mouse at 6 mg/kg administered with food daily for 2 weeks by high-pressure liquid chromatography analysis; format: ADME, organism-based; conditions: po
[14] = Plasma concentration in rifampin-susceptible Mycobacterium leprae infected in BALB/c mouse at 6 mg/kg administered with food daily for 1 week by high-pressure liquid chromatography analysis; format: ADME, organism-based; conditions: po
Mycobacterium leprae [15] = assay: Anti-leprotic activity against Mycobacterium leprae infected in BALB/c weanling mouse assessed as bacteria killing at 100 mg/kg, ip administrated for 60 days and measured after 1 year by most probable number technique analysis relative to control; format: functional
Mycobacterium leprae [16] = assay: Anti-leprotic activity against Mycobacterium leprae infected in BALB/c weanling mouse assessed as bacteria killing at 100 mg/kg, ip administrated for 60 days and measured after 1 year by Spearman-Karber technique analysis relative to control; format: functional
[17] = test system: Mycobacterium tuberculosis; assay: Antitubercular activity against Mycobacterium tuberculosis H37Rv ATCC 27294 assessed as inhibition of [3H]-thymidine incorporation at 1 ug/ml relative to control; format: functional
Mycobacterium leprae [18] = assay: Anti-leprotic activity against Mycobacterium leprae subcultures at 4 weeks assessed as ATP level per 10^7 cells at 15.0 mg/L measured by bioluminescence assay (reference value: 462 +/- 64 pg); format: functional
Mycobacterium leprae [19] = assay: Anti-leprotic activity against Mycobacterium leprae primary cultures at 4 weeks assessed as [3H]thymidine uptake per 5 times 10^7 cells at 10.0 mg/L (reference value: 0.95 +/- 0.01 pmol); format: functional
Mycobacterium leprae [20] = assay: Anti-leprotic activity against Mycobacterium leprae primary cultures at 4 weeks assessed as ATP level per 10^7 cells at 5.0 mg/L measured by bioluminescence assay (reference value: 314 +/- 46 pg); format: functional
Mycobacterium leprae [21] = assay: Anti-leprotic activity against Mycobacterium leprae subcultures at 4 weeks assessed as [3H]thymidine uptake per 5 times 10^7 cells at 10.0 mg/L (reference value: 1.28 +/- 0.14 pmol); format: functional
Mycobacterium leprae [22] = assay: Antimicrobial activity against Mycobacterium leprae; format: functional
Mycobacterium leprae [23] = assay: Anti-leprotic activity against Mycobacterium leprae primary cultures at 4 weeks assessed as [3H]thymidine uptake per 5 times 10^7 cells at 15.0 mg/L (reference value: 0.95 +/- 0.01 pmol); format: functional
Mycobacterium leprae [24] = assay: Anti-leprotic activity against Mycobacterium leprae primary cultures at 4 weeks assessed as ATP level per 10^7 cells at 15.0 mg/L measured by bioluminescence assay (reference value: 314 +/- 46 pg); format: functional
Mycobacterium leprae [25] = assay: Anti-leprotic activity against Mycobacterium leprae primary cultures at 4 weeks assessed as ATP level per 10^7 cells at 10.0 mg/L measured by bioluminescence assay (reference value: 314 +/- 46 pg); format: functional
Mycobacterium leprae [26] = assay: Anti-leprotic activity against Mycobacterium leprae primary cultures at 4 weeks assessed as [3H]thymidine uptake per 5 times 10^7 cells at 5.0 mg/L (reference value: 0.95 +/- 0.01 pmol); format: functional
Mycobacterium leprae [27] = assay: Anti-leprotic activity against Mycobacterium leprae subcultures at 4 weeks assessed as [3H]thymidine uptake per 5 times 10^7 cells at 5.0 mg/L (reference value: 1.28 +/- 0.14 pmol); format: functional
Mycobacterium leprae [28] = assay: Anti-leprotic activity against Mycobacterium leprae subcultures at 4 weeks assessed as [3H]thymidine uptake per 5 times 10^7 cells at 15.0 mg/L (reference value: 1.28 +/- 0.14 pmol); format: functional
Mycobacterium leprae [29] = assay: Anti-leprotic activity against Mycobacterium leprae subcultures at 4 weeks assessed as ATP level per 10^7 cells at 10.0 mg/L measured by bioluminescence assay (reference value: 462 +/- 64 pg); format: functional
Mycobacterium leprae [30] = assay: Anti-leprotic activity against Mycobacterium leprae subcultures at 4 weeks assessed as ATP level per 10^7 cells at 5.0 mg/L measured by bioluminescence assay (reference value: 462 +/- 64 pg); format: functional

Question: Which MIC (Staphylococcus aureus) does the source give for `O=[N+]([O-])c1ccc(/C=N/NC(=S)Nc2ccc(C(F)(F)F)cc2)cc1` here?
Answer: Its MIC is 400 µg/mL (≈ 1090 µM).

Question: What about the MIC (Klebsiella pneumoniae) of the same molecule?
Answer: Its MIC is 400 µg/mL (≈ 1090 µM).

Question: And the MIC (Escherichia coli [1])?
Answer: Its MIC is 400 µg/mL (≈ 1090 µM).

Question: And the MIC (Pseudomonas aeruginosa)?
Answer: Its MIC is 400 µg/mL (≈ 1090 µM).

Question: And the MIC (Nakaseomyces glabratus)?
Answer: The MIC was 200 µg/mL (≈ 543 µM).

Question: And the MIC (Enterococcus faecalis [2])?
Answer: Its MIC is 400 µg/mL (≈ 1090 µM).

Question: What about the MIC [3] of the same molecule?
Answer: Its MIC is 400 µg/mL (≈ 1090 µM).

Question: What about the MIC (Enterococcus faecalis [4]) of the same molecule?
Answer: The MIC was 100 µg/mL (≈ 271 µM).

Question: What about the MIC (Listeria monocytogenes) of the same molecule?
Answer: The MIC was 400 µg/mL (≈ 1090 µM).

Question: What about the MIC (Escherichia coli [5]) of the same molecule?
Answer: The MIC was 400 µg/mL (≈ 1090 µM).

Question: For `Brc1ccc(/N=N/c2ccc(NCCCN3CCCCC3)c3c2CCCC3)cc1`, which MST [6] is on record?
Answer: Its MST is 11 days.

Question: What about the MST [7] of the same molecule?
Answer: The MST was 19 days.

Question: And the MST [8]?
Answer: Its MST is 38 days.

Question: For `OC[C@H]1O[C@@H](n2cnc3c(-c4ccco4)nc(Cl)nc32)[C@H](O)[C@@H]1O`, which IC50 [9] is on record?
Answer: Its IC50 is 3.4 µg/mL (≈ 9.64 µM).

Question: What about the “inhibition (INH)” value [10] of the same molecule?
Answer: Its value is 100%.

Question: What about the inhibition at 6.25 µg/mL [11] of the same molecule?
Answer: Its inhibition at 6.25 µg/mL is 7%.

Question: Which concentration at 672 h [12] does the source give for `OO` [HYDROGEN PEROXIDE] here?
Answer: The concentration at 672 h was 55 ng/mL.

Question: What about the concentration at 336 h [13] of the same molecule?
Answer: Its concentration at 336 h is 50 ng/mL.

Question: And the concentration at 168 h [14]?
Answer: The concentration at 168 h was 42 ng/mL.

Question: Which results are given for `NCC[C@H](O)C(=O)N[C@@H]1C[C@H](N)[C@@H](O[C@H]2O[C@H](CN)[C@@H](O)[C@H](O)[C@H]2O)[C@H](O)[C@H]1O[C@H]1O[C@H](CO)[C@@H](O)[C@H](N)[C@H]1O` [AMIKACIN]?
Answer: Activity (Mycobacterium leprae [15]): 97.3%; Activity (Mycobacterium leprae [16]): 96%

Question: Which inhibition at 1 µg/mL [17] does the source give for `c1ccc(Cn2cnc3c(-c4ccccc4)ncnc32)cc1` here?
Answer: The inhibition at 1 µg/mL was under 10%.

Question: For `COc1cc(Cc2cnc(N)nc2N)cc(OC)c1Br` [BRODIMOPRIM], which Activity (Mycobacterium leprae [18]) is on record?
Answer: Its Activity is 0 pg.

Question: And the Activity (Mycobacterium leprae [19])?
Answer: The Activity was 0.24 pmol.

Question: What about the Activity (Mycobacterium leprae [20]) of the same molecule?
Answer: Its Activity is 296 pg.

Question: What about the Activity (Mycobacterium leprae [21]) of the same molecule?
Answer: The Activity was 0.27 pmol.

Question: What about the MIC (Mycobacterium leprae [22]) of the same molecule?
Answer: The MIC was 0.025 µg/mL (≈ 0.0737 µM).

Question: And the Activity (Mycobacterium leprae [23])?
Answer: The Activity was 0 pmol.

Question: What about the Activity (Mycobacterium leprae [24]) of the same molecule?
Answer: Its Activity is 0 pg.

Question: What about the Activity (Mycobacterium leprae [25]) of the same molecule?
Answer: Its Activity is 108 pg.

Question: And the Activity (Mycobacterium leprae [26])?
Answer: Its Activity is 0.88 pmol.

Question: And the Activity (Mycobacterium leprae [27])?
Answer: Its Activity is 1.1 pmol.

Question: What about the Activity (Mycobacterium leprae [28]) of the same molecule?
Answer: The Activity was 0 pmol.

Question: What about the Activity (Mycobacterium leprae [29]) of the same molecule?
Answer: Its Activity is 109 pg.

Question: What about the Activity (Mycobacterium leprae [30]) of the same molecule?
Answer: The Activity was 346 pg.
